Test results reported in patent US11285156B2, “Substituted piperazines as KRAS G12C inhibitors” (Amgen Inc., priority 2018, dated 2022).

biological target: GDP-bound KRAS protein (aa 1-169), containing both G12C and C118A amino acid substitutions (Homo sapiens (Human), UniProt P01116, C118A/G12C); assay: Coupled nucleotide exchange assay (SOS-mediated nucleotide exchange, AlphaScreen); type: biochemical; conditions: 5 min compound pre-incubation
Sequence (P01116 other isoform, or with tags, fused parts or gaps G12C/C118A): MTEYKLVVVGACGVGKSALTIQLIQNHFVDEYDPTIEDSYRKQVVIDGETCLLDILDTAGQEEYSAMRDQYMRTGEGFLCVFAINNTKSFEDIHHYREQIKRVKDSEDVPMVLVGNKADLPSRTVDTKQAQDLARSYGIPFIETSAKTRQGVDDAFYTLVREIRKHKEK

Coupled exchange IC50 (5 min; μM) [µM]	SMILES
0.932	C=CC(=O)N1C[C@H](C)N(c2nc(=O)n(-c3c(C)ccnc3C(C)C)c3nc(C45CCCCC4C5)c(Cl)cc23)C[C@H]1C (atropisomer, axis not shown; (M)) [Example 207, (M)-6-Chloro-4-[(2S,5R)-2,5-dimethyl-4-prop-2-enoyl-piperazin-1-yl]-1-(2-isopropyl-4-methyl-3-pyridyl)-7-[norcaran-1-yl]pyrido[2,3-d]pyrimidin-2-one]
2.88	C=CC(=O)N1C[C@H](C)N(c2nc(=O)n(-c3c(C)ccnc3C(C)C)c3nc(N4CCCCC4C)c(Cl)cc23)C[C@H]1C (mixture of isomers) [Example 69-12, (M)-6-Chloro-4-[(2S,5R)-2,5-dimethyl-4-prop-2-enoyl-piperazin-1-yl]-1-(2-isopropyl-4-methyl-3-pyridyl)-7-[(2SR)-2-methyl-1-piperidyl]pyrido[2,3-d]pyrimidin-2-one]
1.48	C=CC(=O)N1C[C@H](C)N(c2nc(=O)n(-c3c(C)cc(CN(C)C)cc3C(C)C)c3nc(-c4ccccc4F)c(Cl)cc23)C[C@H]1C (single isomer, unassigned) [Example 121-4]

same assay, conditions: read-out: Coupled exchange IC50 (5 min; μM); 5 min compound pre-incubation

SMILES	IC50 [µM]
C=CC(=O)N1C[C@H](C)N(c2nc(=O)n(-c3c(C)ccnc3C(C)C)c3nc(-c4cc(O)cc5ccccc45)c(F)cc23)C[C@H]1C (atropisomer, axis not shown; (M)) [Example 132-2, (M)-4-[(2S,5R)-2,5-dimethyl-4-prop-2-enoyl-piperazin-1-yl]-6-fluoro-7-(3-hydroxy-1-naphthyl)-1-(2-isopropyl-4-methyl-3-pyridyl)pyrido[2,3-d]pyrimidin-2-one]	0.57
C=CC(=O)N1CCN(c2nc(=O)n(-c3c(C)ccnc3C(C)C)c3nc(Cl)c(Cl)cc23)CC1CC#N (atropisomer, axis not shown; (M)) [Example 144-2, (M)-2-[4-[6,7-Dichloro-1-(2-isopropyl-4-methyl-3-pyridyl)-2-oxo-pyrido[2,3-d]pyrimidin-4-yl]-1-prop-2-enoyl-piperazin-2-yl]acetonitrile]	24.9
C=CC(=O)N1CCN(c2nc(=O)n(-c3c(C)ccnc3C(C)C)c3nc(Cl)c(Cl)cc23)CC1CC#N (atropisomer, axis not shown; (M)) [Example 144-2-1, (M)-2-[4-[6,7-Dichloro-1-(2-isopropyl-4-methyl-3-pyridyl)-2-oxo-pyrido[2,3-d]pyrimidin-4-yl]-1-prop-2-enoyl-piperazin-2-yl]acetonitrile]	63.7
C=CC(=O)N1CCN(c2nc(=O)n(-c3c(C)ccnc3C(C)C)c3nc(-c4ccccc4F)c(Cl)cc23)[C@@H]2C[C@@H]21 (atropisomer, axis not shown; (M)) [Example 222-1, (M)-4-((1R,6S)-5-Acryloyl-2,5-diazabicyclo[4.1.0]heptan-2-yl)-6-chloro-7-(2-fluorophenyl)-1-(2-isopropyl-4-methylpyridin-3-yl)pyrido[2,3-d]pyrimidin-2(1H)-one]	0.95
C=CC(=O)N1C[C@H](C)N(c2nc(=O)n(-c3c(CN4CCCC4)cccc3C(C)C)c3nc(-c4ccccc4F)c(Cl)cc23)C[C@H]1C (single isomer, unassigned) [Example 80-10-1]	2.04
C=CC(=O)N1C[C@H](C)N(c2nc(=O)n(-c3c(CN(C)C)cccc3C(C)C)c3nc(-c4ccccc4F)c(Cl)cc23)C[C@H]1C (single isomer, unassigned) [Example 80-14-1]	1.26
C=CC(=O)N1C[C@H](C)N(c2nc(=O)n(-c3c(CN(C)C)ccnc3C(C)C)c3nc(-c4ccccc4F)c(Cl)cc23)C[C@H]1C (single isomer, unassigned) [Example 80-16-2]	0.903
C=CC(=O)N1C[C@H](C)N(c2nc(=O)n(-c3c(CN(C)C)ncnc3C(C)C)c3nc(-c4ccccc4F)c(Cl)cc23)C[C@H]1C (single isomer, unassigned) [Example 80-18-1]	1.39
C=CC(=O)N1C[C@H](C)N(c2nc(=O)n(-c3c(C)cc(CN(C)C)cc3C(C)C)c3nc(-c4ccccc4F)c(F)cc23)C[C@H]1C (single isomer, unassigned) [Example 80-20-1]	13.9
C=CC(=O)N1C[C@H](C)N(c2nc(=O)n(-c3c(C)cc(CN(C)C)cc3C(C)C)c3nc(-c4c(O)cccc4F)c(F)cc23)C[C@H]1C (single isomer, unassigned) [Example 80-21-1]	0.949
C=CC(=O)N1C[C@H](C)N(c2nc(=O)n(-c3c(Cl)ncnc3C(C)C)c3nc(-c4ccccc4C)c(Cl)cc23)C[C@H]1C (single isomer, unassigned) [Example 102-6-2]	0.726
C=CC(=O)N1C[C@H](C)N(c2nc(=O)n(-c3c(C)cc(P(C)(C)=O)cc3C(C)C)c3nc(-c4ccccc4F)c(Cl)cc23)C[C@H]1C (single isomer, unassigned) [Example 102-7-2]	5.28
C=CC(=O)N1C[C@H](C)N(c2nc(=O)n(-c3c(N(C)C)ccnc3C(C)C)c3nc(-c4ccccc4C(C)C)c(Cl)cc23)C[C@H]1C (single isomer, unassigned) [Example 103-1-1]	1.26
C=CC(=O)N1C[C@H](C)N(c2nc(=O)n(-c3c(N(CC)CC)ccnc3C(C)C)c3nc(-c4ccccc4C(C)C)c(Cl)cc23)C[C@H]1C (single isomer, unassigned) [Example 103-6-1]	1.15
C=CC(=O)N1C[C@H](C)N(c2nc(=O)n(-c3c(N(C)C)ccnc3C(C)C)c3nc(-c4ccccc4C)c(Cl)cc23)C[C@H]1C (single isomer, unassigned) [Example 103-7-1]	0.653
C=CC(=O)N1C[C@H](C)N(c2nc(=O)n(-c3c(C)ccnc3C(C)C)c3nc(-c4ccccc4F)c(Cl)nc23)C[C@H]1C (single isomer, unassigned) [Example 106-6-1]	3.67
C=CC(=O)N1C[C@H](C)N(c2nc(=O)n(-c3c(CC)ncnc3C(C)C)c3nc(-c4ccccc4C)c(Cl)cc23)C[C@H]1C (single isomer, unassigned) [Example 109-2-2]	0.226
C=CC(=O)N1C[C@H](C)N(c2nc(=O)n(-c3c(N(C)C)ccnc3C(C)C)c3nc(-c4c(F)cccc4NC(=O)CC)c(Cl)cc23)C[C@H]1C (single isomer, unassigned) [Example 122-2-1]	17.3
C=CC(=O)N1C[C@H](C)N(c2nc(=O)n(-c3c(N(C)C)ccnc3C(C)C)c3nc(-c4c(F)cccc4NC(=O)C4CC4)c(Cl)cc23)C[C@H]1C (single isomer, unassigned) [Example 122-3-1]	6.82
C=CC(=O)N1[C@H](C)CN(c2nc(=O)n(-c3c(C)cc(N)nc3C(C)C)c3nc(-c4c(O)cccc4F)c(F)cc23)C[C@@H]1C (single isomer, unassigned) [Example 123-1]	1.25
C=CC(=O)N1[C@H](C)CN(c2nc(=O)n(-c3c(C)cc(N)nc3C(C)C)c3nc(-c4ccccc4F)c(F)cc23)C[C@@H]1C (single isomer, unassigned) [Example 123-3]	14
C=CC(=O)N1[C@H](C)CN(c2nc(=O)n(-c3c(C)cc(N)nc3C(C)C)c3nc(-c4ccccc4F)c(F)cc23)C[C@@H]1C (single isomer, unassigned) [Example 123-4]	1
